Activity calls are given as the source filed them. The rule behind the calls is not given here.
What was measured:
HT-29 [1] = test: Cytotoxicity against human HT-29 cells after 72 hrs by MTT assay; format: functional, cell-based
[2] = Cytotoxicity against human U87 cells assessed as cell viability at 10 nmol after 24 hrs by MTT assay relative to control; format: cell-based, U-87MG ATCC; settings: read-out: Activity
HT-29 [3] = test: Cell cycle arrest in human HT-29 cells assessed as accumulation at S phase at 5 uM after 24 hrs by propidium iodide staining based flow cytometric analysis (reference value: 15.6 +/- 0.3%); format: functional
U-87MG ATCC [4] = test: Anti-vasculogenic activity in human U87 cells assessed as reduction in formation of cord-like structures at 1 uM after 24 hrs by matrigel based light microscopic analysis; format: functional, cell-based
DLD-1 = test: Cytotoxicity against human DLD1 cells after 72 hrs by MTT assay; format: functional, cell-based
HT-29 [5] = test: Cell cycle arrest in human HT-29 cells assessed as accumulation at G1 phase at 2.5 uM after 24 hrs by propidium iodide staining based flow cytometric analysis (reference value: 68 +/- 0.9%); format: functional
HT-29 [6] = test: Cell cycle arrest in human HT-29 cells assessed as accumulation at sub-G1 phase at 2.5 uM after 24 hrs by propidium iodide staining based flow cytometric analysis (reference value: 0.9 +/- 0.1%); format: functional
HT-29 [7] = test: Cell cycle arrest in human HT-29 cells assessed as accumulation at G2/M phase at 1 uM after 24 hrs by propidium iodide staining based flow cytometric analysis (reference value: 15.5 +/- 0.5%); format: functional
HT-29 [8] = test: Cell cycle arrest in human HT-29 cells assessed as accumulation at S phase at 1 uM after 24 hrs by propidium iodide staining based flow cytometric analysis (reference value: 15.6 +/- 0.3%); format: functional
U-87MG ATCC [9] = test: (§1) Cytotoxicity against human U87 cells after 72 hrs by MTT assay; format: functional, cell-based
[10] = as §1; format: functional, cell-based, U-87MG ATCC; settings: U-87 MG
HT-29 [11] = test: Upregulation of cyclin B1 expression in human HT-29 cells at 0.5 to 0.75 uM after 24 hrs by Western blot analysis; format: functional, cell-based
U-87MG ATCC [12] = test: Anti-vasculogenic activity in human U87 cells assessed as reduction in formation of blood-vessel like tubular structures at 1 uM after 24 hrs by matrigel based light microscopic analysis; format: functional, cell-based
HT-29 [13] = test: Cell cycle arrest in human HT-29 cells assessed as accumulation at S phase at 2.5 uM after 24 hrs by propidium iodide staining based flow cytometric analysis (reference value: 15.6 +/- 0.3%); format: functional
HT-29 [14] = test: Cell cycle arrest in human HT-29 cells assessed as accumulation at G2/M phase at 5 uM after 24 hrs by propidium iodide staining based flow cytometric analysis (reference value: 15.5 +/- 0.5%); format: functional
518A2 [15] = test: Anti-migratory activity in human 518A2 cells assessed as wound closure at 250 nM after 48 hrs by light microscopic analysis (reference value: 100%); format: functional
Danio rerio = species: Danio rerio; test: Antiangiogenic activity in 72 hrs post fertilized zebra fish embryo harboring fli1a:EGFP assessed as area of subintestinal veins at 10 uM after 48 hrs by fluorescence microscopic analysis (reference value: 100%); format: functional
HT-29 [16] = test: Cell cycle arrest in human HT-29 cells assessed as accumulation at G2/M phase at 2.5 uM after 24 hrs by propidium iodide staining based flow cytometric analysis (reference value: 15.5 +/- 0.5%); format: functional
HCT-116 = test: Cytotoxicity against human HCT116 cells after 72 hrs by MTT assay; format: functional, cell-based
HT-29 [17] = test: Cell cycle arrest in human HT-29 cells assessed as accumulation at sub-G1 phase at 5 uM after 24 hrs by propidium iodide staining based flow cytometric analysis (reference value: 0.9 +/- 0.1%); format: functional
Homo sapiens = species: Homo sapiens; test: Inhibition of NF-kappaB in human 518A2 cells assessed as reduction in p65 subunit expression at 0.5 to 1 uM after 24 hrs by Western blot analysis; format: cell-based
[18] = Toxicity in 6 days post fertilized chicken egg chorioallantoic/vitelline membrane assessed as irritation of chorioallantoic/vitelline membrane at 10 nmol administered topically measured after 24 hrs; set-up: species or system Gallus gallus; settings: in vivo, topical_or_ocular
HT-29 [19] = test: Cell cycle arrest in human HT-29 cells assessed as accumulation at G1 phase at 5 uM after 24 hrs by propidium iodide staining based flow cytometric analysis (reference value: 68 +/- 0.9%); format: functional
[20] = Cytotoxicity against HDFa after 72 hrs by MTT assay; format: cell-based; settings: Homo sapiens
HT-29 [21] = test: Cell cycle arrest in human HT-29 cells assessed as accumulation at G1 phase at 1 uM after 24 hrs by propidium iodide staining based flow cytometric analysis (reference value: 68 +/- 0.9%); format: functional
Gallus gallus [22] = test: Vascular disruptive activity in 6 days post fertilized chicken egg chorioallantoic/vitelline membrane assessed as degradation of blood vessels at 10 nmol administered topically measured after 6 hrs by stereo-microscopic analysis; format: functional
KB-V1/Vbl = test: (§2) Cytotoxicity against human KB-V1/Vbl cells after 72 hrs by MTT assay; format: functional, cell-based
[23] = as §2; format: functional, cell-based
U-87MG ATCC [24] = test: Anti-vasculogenic activity in human U87 cells assessed as reduction in formation of small stray colonies at 1 uM after 24 hrs by matrigel based light microscopic analysis; format: functional, cell-based
MCF7/Topo = test: (§3) Cytotoxicity against human MCF7/Topo cells after 72 hrs by MTT assay; format: functional, cell-based
[25] = as §3; format: functional, cell-based
PANC-1 = test: Cytotoxicity against human PANC1 cells after 72 hrs by MTT assay; format: functional, cell-based
Gallus gallus [26] = test: Vascular disruptive activity in 6 days post fertilized chicken egg assessed as area covered by blood vessels at 10 nmol administered topically measured after 6 hrs by light microscopic analysis relative to control; format: functional
518A2 [27] = test: Cytotoxicity against human 518A2 cells after 72 hrs by MTT assay; format: functional, cell-based
518A2 [28] = test: Anti-migratory activity in human 518A2 cells assessed as wound closure at 250 nM after 24 hrs by light microscopic analysis; format: functional, cell-based
HT-29 [29] = test: Cell cycle arrest in human HT-29 cells assessed as accumulation at sub-G1 phase at 1 uM after 24 hrs by propidium iodide staining based flow cytometric analysis (reference value: 0.9 +/- 0.1%); format: functional

For `CCN1C/C(=C\c2ccc(S(F)(F)(F)(F)F)cc2)C(=O)/C(=C/c2ccc(S(F)(F)(F)(F)F)cc2)C1`, the Activity (HT-29 [1]) was “Dose-dependent effect”, the IC50 (HT-29 [1]; HT-29, 72 h) was 290 nM and the viability at 24 h, 10 nmol [2] was > 85%. The Activity (HT-29 [3]) was 16.5%, the Activity (U-87MG ATCC [4]) was “inactive” and the Activity (DLD-1) was “Dose-dependent effect”. It also gave an IC50 (DLD-1; DLD-1, 72 h) of 330 nM, an Activity (HT-29 [5]) of 43.1% and an Activity (HT-29 [6]) of 12.8%. The Activity (HT-29 [7]) was 32.1%, the Activity (HT-29 [8]) was 8.1% and the Activity (U-87MG ATCC [9]) was “Dose-dependent effect”. The IC50 [10] was 930 nM, the Activity (HT-29 [11]) was “Active” and the Activity (U-87MG ATCC [12]) was “inactive”. It also gave an Activity (HT-29 [13]) of 12%, an Activity (HT-29 [14]) of 31% and an Activity (518A2 [15]) of 77%. For the same compound, the Activity (Danio rerio) was 51%, the Activity (HT-29 [16]) was 32.1% and the Activity (HCT-116) was “Dose-dependent effect”. The IC50 (HCT-116; HCT-116, 72 h) was 240 nM, the Activity (HT-29 [17]) was 16.6% and the inhibition (Homo sapiens) was “Active”. For the same compound, the Activity [18] was “Toxic”, the Activity (HT-29 [19]) was 35.9% and the IC50 [20] was 3200 nM. For the same compound, the Activity (HT-29 [21]) was 46.7%, the Activity (Gallus gallus [22]) was “Active” and the Activity (KB-V1/Vbl) was “Dose-dependent effect”. For the same compound, the IC50 [23] was 640 nM, the Activity (U-87MG ATCC [24]) was “inactive” and the Activity (MCF7/Topo) was “Dose-dependent effect”. For the same compound, the IC50 [25] was 400 nM, the Activity (PANC-1) was “Dose-dependent effect” and the IC50 (PANC-1; PANC-1, 72 h) was 1100 nM. For the same compound, the Activity (Gallus gallus [26]) was 67%, the Activity (518A2 [27]) was “Dose-dependent effect” and the IC50 (518A2 [27]; 518A2, 72 h) was 990 nM. The Activity (518A2 [28]) was “Active” and the Activity (HT-29 [29]) was 13.2%.

Reference: ChEMBL document CHEMBL4043139, “Fluoro and pentafluorothio analogs of the antitumoral curcuminoid EF24 with superior antiangiogenic and vascular-disruptive effects” (Bioorg Med Chem, 2017)
